A short description of series [1]: Oral bioavailability from crystalline suspension in dog (plasma PK, LC/MS/MS). The series is classed as in vivo, beagle dogs. To be noted: for bioavailability: read-out: F (oral bioavailability). How it is done: Oral Bioavailability-Determination of Oral Bioavailability of Integrase Inhibitors from Crystalline Suspension in Dog The in-life phase of these studies was carried out at SRI, Menlo Park, Calif. Both Compound (Ia) and Comparator Compound were formulated in 0.5% HPMC […], 0.2% Tween 20, 0.9% benzyl alcohol, and 98.4% water. Both were at 2.00 mg/mL for oral dosing. Each dosing group consisted of 3 male, beagle dogs. At dosing, the animals weighed an average of 10.9 kgs for Compound (Ia) and 10.5 kgs for Comparator Compound. The animals were fasted overnight prior to dose administration and up to 4 hr after dosing. The dogs were pre-treated with pentagastrin at 30 minutes prior to dosing by IM injection. The Compound (Ia) suspension was administered by oral gavage at 1.5 mL/kg to deliver a total dose of 3 mg/kg, while the Comparator Compound suspension was administered by oral gavage at 2 mL/kg for a dose of 4 mg/kg. Serial venous blood samples (approximately 0.8-1.0 mL each) were taken at specified time points (range t=0 to t=24 hr) after dosing from each animal. The blood samples were collected into VacutainerTM tubes containing EDTA-K3 as the anti-coagulant and were immediately placed on wet ice pending centrifugation for plasma. Dosing solutions were analyzed using un-used portions of the dosing solutions, and aliquots of approximately 1 mL of each dosing solution were saved. The concentration of compound in the dosing solution was measured with an HPLC-UV method. Comparator Compound (nominal dose of 4 mg/kg) was dosed at 9387 nmoles/kg, while Compound (Ia) (nominal dose of 3 mg/kg) was dosed at 6563-6566 nmoles/kg. An LC/MS/MS method was used to measure the concentration of test compounds in plasma. Non-compartmental pharmacokinetic analysis was performed on the plasma concentration-time data. The bioanalytical method consisted of treating 100 μL of each plasma sample with 200 μL of acetonitrile (ACN) and 200 μL acetonitrile (ACN) containing internal standard. After protein precipitation and centrifugation, 100 μL of the supernatant was transferred to a clean 96-well plate and mixed with 100 μL of water. An aliquot of 10 μL of the above solution was injected onto an API-4000 triple quadrupole LC/MS/MS system. A Hypersil Gold (#25005-053030, Thermo Electron Corporation) column was used. Mobile phase A contained water with 0.1% formic acid and 1% IPA. Mobile phase B contained acetonitrile with 0.1% formic acid and 1% IPA.

Series [2] has as its system HIV-IIIb. To be noted: MT-2 cells; as reported in WO 2010/011959; cited from earlier work.
Series [3] is described as follows: Aqueous solubility in buffers, HPLC-UV. The series is classed as physicochemical. To be noted: aqueous buffer, thermodynamic from solid, 24 to 48 hours. How it is done:
Excess solid material was added to aqueous buffers at pH 2 and pH 7 in glass vials to form suspensions. The suspension was stirred on a stirrer plate with a magnetic stirrer bar at room temperature for periods of 24 to 48 hours. The suspension was filtered through a 0.22 micron PVDF syringe filters. The clear filtrate was diluted in acetonitrile and analyzed by HPLC-UV against an external standard for the compound concentration.

The test system of series [4] is HIV-IIIb. Nature of the series: Antiviral assay in MT-2 / MT-4 cells infected with HIV-IIIb (CellTiter-Glo readout). The series is classed as cell-based. To be noted: Human immunodeficiency virus 1, MT4, 120 h, 5 days, cell line (MT-2 or MT-4) not printed in Table 1. How it is done:
For the antiviral assay utilizing MT-2 cells, 50 μL of 2× test concentration of 5-fold serially diluted compound in culture medium with 10% FBS was added to each well of a 96-well plate (9 concentrations) in triplicate. MT-2 cells were infected with HIV-IIIb at a multiplicity of infection (m.o.i) of 0.01 for 3 hours. Fifty microliters of infected cell suspension in culture medium with 10% FBS (˜1.5×10^4 cells) was then added to each well containing 50 μL of diluted compound. The plates were then incubated at 37° C. for 5 days. For the antiviral assay utilizing MT-4 cells, 20 μL of 2× test concentration of 5-fold serially diluted compound in culture medium with 10% FBS was added to each well of a 384-well plate (7 concentrations) in triplicate. MT-4 cells were next mixed with HIV-IIIb at an m.o.i. of 0.1 and 20 μL of virus/cell mixture (˜2000 cells) was immediately added to each well containing 20 μL of diluted compound. The plates were then incubated at 37° C. for 5 days. After 5 days of incubation, 100 μL of CellTiter-Glo™ Reagent (catalog #G7571, Promega Biosciences, Inc., Madison, Wis.) was added to each well containing MT-2 cells and 40 μl to each well containing MT-4 cells. Cell lysis was carried out by incubating at room temperature for 10 min and then chemiluminescence was read.
For orientation: In ATP-based viability assays light output follows the ATP content of the culture.

Series [5] can be described thus: Cytotoxicity (CC50) in MT-2 cells. The series is classed as cell-based. To be noted: human.
Series [6] in a line: Cytotoxicity (CC50) in MT-4 cells. The format is cell-based. To be noted: human.
Where [7] appears, read: PO 4 mg/kg suspension, dog plasma, individual dogs, 4 mg/kg.
The mark [8] stands for this setting: male, beagle, dog, plasma, po, 4 mg/kg, PO 4 mg/kg suspension, dog plasma, individual dogs.
The mark [9] stands for this setting: PO 3 mg/kg suspension, dog plasma, individual dogs, 3 mg/kg.
Where [10] appears, read: male, beagle, dog, plasma, po, 3 mg/kg, PO 3 mg/kg suspension, dog plasma, individual dogs.
[11] abbreviates: male, beagle, dog, plasma, po, 3 mg/kg, PO 3 mg/kg suspension, dog plasma, mean n = 3.

The structures appear in SMILES notation. Converted amounts (≈) assume the structure as drawn. “And” between values parts separate entries of the source, which are not always exact repeats. Equal values may be shown once. Read-outs that look alike come from different tables or passages of the source.

Turning to `CNC(=O)c1c(O)c2ncc(Cc3ccc(F)cc3)c3c2n(c1=O)C[C@H](C(=O)NC)O3` [Comparator Compound, reference compound], the AUClast in series [1] (setting [7]) is 0.385 µM·h and 0.0898 µM·h and 0.0552 µM·h. Further, the Cmax is 58.5 nM and 16.3 nM and 11.3 nM in series [1] (setting [7]); 28.7 ± 25.9 nM in series [1] (male, beagle, dog, plasma, po, 4 mg/kg, PO 4 mg/kg suspension, dog plasma, mean n = 3). The Tmax came out at 2.00 h in series [1] (setting [7]); 4 h in series [1] (male, beagle, dog, plasma, po, 4 mg/kg, PO 4 mg/kg suspension, dog plasma, individual dogs, read-out: Tmax); 2.67 h in series [1] (male, beagle, dog, plasma, po, 4 mg/kg, PO 4 mg/kg suspension, dog plasma, mean n = 3, read-out: Tmax). In addition, the “F (oral bioavailability)” value in series [1] (PO 4 mg/kg suspension, dog, individual dogs, 4 mg/kg) was 0.5% and 0.1% (2×). Also, the CL in series [1] (listed in table of PO 4 mg/kg suspension, dog plasma, individual dogs, 4 mg/kg) was 0.13 L/h/kg and 0.14 L/h/kg and 0.19 L/h/kg; in series [1] (listed in table of PO 4 mg/kg suspension, dog plasma, mean n = 3), 0.15 L/h/kg. Also, the AUC(0-inf) in series [1] (male, beagle, dog, plasma, po, 4 mg/kg, PO 4 mg/kg suspension, dog plasma, Mean column (only one dog calculable)) was 0.427 µM·h; in series [1] (setting [8]) it was 0.427 µM·h. The same molecule showed a half-life in series [1] (setting [8]) of 2.97 h. Also, the AUC(0-t) in series [1] (male, beagle, dog, plasma, po, 4 mg/kg, PO 4 mg/kg suspension, dog plasma, mean n = 3, read-out: AUClast (AUC0-t)) is 0.177 ± 0.181 µM·h. Besides, the bioavailability in series [1] (male, beagle, dog, plasma, po, 4 mg/kg, PO 4 mg/kg suspension, pentagastrin pretreated dogs, mean n = 3) amounted to 0.2%. Further, the EC50 in the series on HIV-IIIb [2] was 6.8 nM. The solubility amounted to 1 µg/mL (≈ 2.35 µM) in series [3] (pH 2.2, room temperature) and 1 µg/mL (≈ 2.35 µM) in series [3] (pH 7.3, room temperature).

`CNC(=O)c1c(O)c2ncc(Cc3ccc(F)cc3)c3c2n(c1=O)C[C@](C)(c1nnc(C)o1)O3` [Compound (Ia)] had an EC50 with HIV-IIIb [4] of 3.4 nM. Moreover, the AUCinf in series [1] (setting [9]) was 14.413 µM·h and 21.913 µM·h. For the same molecule, the AUClast in series [1] (setting [9]) is 14.199 µM·h and 21.762 µM·h. Further, the Cmax in series [1] (setting [9]) is 2500 nM and 4240 nM; in series [1] (setting [10]), 3160 nM; in series [1] (setting [11]), 3300 ± 878 nM. Also, the Tmax is 2.00 h in series [1] (setting [9]); 1 h in series [1] (male, beagle, dog, plasma, po, 3 mg/kg, PO 3 mg/kg suspension, dog plasma, individual dogs, read-out: Tmax); roughly 1.33 h in series [1] (male, beagle, dog, plasma, po, 3 mg/kg, PO 3 mg/kg suspension, dog plasma, mean n = 3, read-out: Tmax). Moreover, the t1/2 in series [1] (setting [9]) was 4.88 h and 3.64 h. Moreover, the “F (oral bioavailability)” value was 35.0% and 53.6% in series [1] (PO 3 mg/kg suspension, dog, individual dogs, 3 mg/kg); 45.2% in series [1] (PO 3 mg/kg suspension, pentagastrin pretreated dogs, mean n = 3). In addition, the CL in series [1] (listed in table of PO 3 mg/kg suspension, dog plasma, individual dogs, 3 mg/kg) is 0.17 L/hr/kg (2×) and 0.15 L/hr/kg; in series [1] (listed in table of PO 3 mg/kg suspension, dog plasma, mean n = 3) it was 0.16 L/h/kg. Further, the figures for the AUC(0-inf) in series [1] (setting [10]) and in series [1] (setting [11]) were 19.3 µM·h and 18.6 µM·h, respectively. Besides, the half-life in series [1] (setting [10]) is 4.16 h; in series [1] (setting [11]), 4.22 h. Besides, the AUC(0-t) is 19.1 µM·h in series [1] (male, beagle, dog, plasma, po, 3 mg/kg, PO 3 mg/kg suspension, dog plasma, individual dogs, read-out: AUClast) and 18.3 µM·h in series [1] (male, beagle, dog, plasma, po, 3 mg/kg, PO 3 mg/kg suspension, dog plasma, mean n = 3, read-out: AUClast). In addition, the bioavailability in series [1] (male, beagle, dog, plasma, po, 3 mg/kg, PO 3 mg/kg suspension, dog, individual dogs) was determined as 47%; in series [1] (male, beagle, dog, plasma, po, 3 mg/kg, PO 3 mg/kg suspension, pentagastrin pretreated dogs, mean n = 3), 45%. The CC50 at 5 days in series [5] amounted to 5300 nM; in series [6], 42000 nM. In addition, the solubility was 29.4 µg/mL (≈ 63.2 µM) in series [3] (pH 2.2, room temperature) and 31.6 µg/mL (≈ 67.9 µM) in series [3] (pH 7.3, room temperature).

The term Cmax denotes the peak of the concentration-time curve. As a reminder, the Tmax is the time from dosing to the highest level. In general, AUC(0-inf) refers to total exposure, with the tail of the curve extrapolated. Broadly, the half-life is the time in which the quantity being followed falls by half. For orientation: bioavailability means the share of a dose that reaches the circulation, judged against a reference dose that is usually intravenous. A word on the EC50: it is the midpoint of the concentration-response curve. As a reminder, the solubility is the dissolved amount per volume that the medium holds. For orientation: CC50 means the concentration giving 50% cytotoxicity. Low values mean harm at low concentration, high ones better tolerance by the cells.

The record behind these values is patent US20110223131A1, “ANTIVIRAL COMPOUNDS” (Gilead Sciences, Inc., priority 2010, published 2011).
